Earlier results on 1 compound are cited in patent US20240252511A1, “METHODS OF TREATING DEPRESSION AND ANXIETY” (Woolsey Pharmaceuticals, Inc., priority 2021, published 2024).

The conditions of this series: in vivo; 1 hydroxy (M3) metabolite.

As to `O=S(=O)(c1cccc2c(O)nccc12)N1CCCNCC1` [M3, hydroxyfasudil], the half-life entry was “about 8 hours”.
